Consider eight compounds from ChEMBL document CHEMBL1130451, “Synthesis and cytotoxicity of amino analogues of the potent DNA alkylating agent seco-CBI-TMI” (Bioorg Med Chem Lett, 1997).

The nature of this assay: Concentration required for 50% inhibition of growth of AA8 cells following 4 hr drug exposure. It counts as functional, cell-based. To be noted: Cricetulus griseus, CHO-AA8, 4 h.
In the case of `COc1cc2cc(C(=O)N3CC(CCl)c4c3cc(N)c3ccccc43)[nH]c2c(OC)c1OC` (stereo not drawn), half-maximal inhibition (IC50) was put at 0.43 nM.

In the case of `COc1cc2cc(C(=O)N3CC(CCl)c4ccc(N)cc43)[nH]c2c(OC)c1OC` (stereo not drawn), half-maximal inhibition (IC50) required 320 nM.

Compound `COc1cc2cc(C(=O)N3CC(CCl)c4ccc([N+](=O)[O-])cc43)[nH]c2c(OC)c1OC` (stereo not drawn) yielded an IC50 of over 40000 nM. For `COc1cc2cc(C(=O)N3CC(CCl)c4c3cc(N(C)C)c3ccccc43)[nH]c2c(OC)c1OC` (stereo not drawn), 5.6 nM corresponded to half-maximal inhibition (IC50).

As to `COc1cc2cc(C(=O)N3CC(CCl)c4ccc(N(C)C)cc43)[nH]c2c(OC)c1OC` (stereo not drawn), inhibition was half-maximal at 280 nM (IC50). To `CNc1cc2c(c3ccccc13)C(CCl)CN2C(=O)c1cc2cc(OC)c(OC)c(OC)c2[nH]1` (stereo not drawn) belongs 0.17 nM; to `COc1cc2cc(C(=O)N3CC(CCl)c4c3cc([N+](=O)[O-])c3ccccc43)[nH]c2c(OC)c1OC` (stereo not drawn), 1600 nM; to `CNc1ccc2c(c1)N(C(=O)c1cc3cc(OC)c(OC)c(OC)c3[nH]1)CC2CCl` (stereo not drawn), 220 nM.
